Data from ChEMBL document CHEMBL5053524, “Novel Electrophilic Warhead Targeting a Triple-Negative Breast Cancer Driver in Live Cells Revealed by "Inverse Drug Discovery"” (J Med Chem, 2021).
One block for each compound: values may come before it.

How the values were obtained:
[1] = tested on: Bcap37; test: Antiproliferative activity against human BcaP37 cells assessed as cell viability incubated for 24 hrs by CCk8 assay; format: functional, cell-based; conditions: Bcap37, 24 h
[2] = target: Glutathione S-transferase P (Homo sapiens, UniProt P09211); test: Inhibition of recombinant GSTP1 (unknown origin) using GSH substrate
[3] = tested on: MDA-MB-231; test: Antiproliferative activity agaisnt human MDA-MB-231 cells assessed as cell viability incubated for 24 hrs by CCK8 assay; format: functional, cell-based; conditions: MDA-MB-231, 24 h
[4] = tested on: MDA-MB-468; test: Antiproliferative activity agaisnt human MDA-MB-468 cells assessed as cell viability incubated for 24 hrs by CCK8 assay; format: functional, cell-based; conditions: MDA-MB-468, 24 h
[5] = tested on: MCF7; test: Antiproliferative activity agaisnt human MCF7 cells assessed as cell viability incubated for 24 hrs by CCK8 assay; format: functional, cell-based; conditions: MCF7, 24 h
[6] = tested on: MDA-MB-453; test: Antiproliferative activity agaisnt human MDA-MB-453 cells assessed as cell viability incubated for 24 hrs by CCK8 assay; format: functional, cell-based; conditions: MDA-MB-453, 24 h
[7] = tested on: MDA-MB-468; test: Antiproliferative activity agaisnt human MDA-MB-468 cells assessed as cell viability incubated for 24 hrs in presence of GSTP1 siRNA by CCK8 assay; format: functional, cell-based; conditions: MDA-MB-468, 24 h
[8] = tested on: MDA-MB-468; test: Antiproliferative activity agaisnt human MDA-MB-468 cells assessed as cell viability incubated for 24 hrs in presence of scrambled siRNA by CCK8 assay; format: functional, cell-based; conditions: MDA-MB-468, 24 h

Glutathione S-transferase P, sequence (P09211 whole entry): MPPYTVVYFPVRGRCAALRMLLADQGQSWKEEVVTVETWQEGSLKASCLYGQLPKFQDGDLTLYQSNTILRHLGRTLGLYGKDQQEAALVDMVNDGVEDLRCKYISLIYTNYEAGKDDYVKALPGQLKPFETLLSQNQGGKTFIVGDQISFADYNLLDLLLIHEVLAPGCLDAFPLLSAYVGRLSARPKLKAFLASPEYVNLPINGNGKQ

Compound: C#CCOc1ccc(-c2c(N(CC)CC)c2=O)cc1
- IC50 [1]: 46.1 µM

Compound: C#CCOC(=O)CCCCc1cc1=O
- IC50 [1]: 10.6 µM
- IC50 [2]: 1180 nM

Compound: O=c1cc1-c1ccc2ccccc2c1
- IC50 [2]: 360 nM

Compound: O=c1cc1-c1ccc(Oc2ccccc2)cc1
- IC50 [2]: 730 nM

Compound: O=c1cc1-c1ccc(OCc2ccccc2)cc1
- IC50 [2]: 730 nM
- IC50 [3]: 5.02 µM
- IC50 [4]: 3.47 µM
- IC50 [5]: 12.5 µM
- IC50 [6]: 11 µM
- IC50 [7]: 5.02 µM
- IC50 [8]: 3.46 µM

Compound: C#CCOc1ccc(-c2c(-c3ccc(OCC#C)cc3)c2=O)cc1
- IC50 [1]: 26.1 µM

Further compounds by falling IC50 [2], results first:

- IC50 [2]: 3200 nM
Compound: O=c1cc1-c1ccc(OCc2ccc(-c3ccccc3)cc2)cc1

- IC50 [2]: 1990 nM
- IC50 [3]: 6.14 µM
- IC50 [4]: 4.48 µM
- IC50 [5]: 14.7 µM
- IC50 [6]: 30 µM
- IC50 [7]: 20.1 µM
- IC50 [8]: 4.47 µM
Compound: COc1ccc2cc(-c3cc3=O)ccc2c1

- IC50 [2]: 1640 nM
Compound: C#CCOc1ccc(-c2cc2=O)cc1
- IC50 [1]: 45 µM
